Legend:
V. destructor mites = assay: Topical application of synthetic peptides and oxalic acid to V. destructor mites; assay type: in vivo, Varroa destructor; details: 3% oxalic acid, positive control
Experimental: An outline of the project discovery pipeline is presented in Supplementary Fig. 1. To identify varroacidal venom peptides, we screened venoms for activity against V. destructor by topical application. Topical tests were performed in several stages. First, whole venom was tested to determine mortality for V. destructor. Hit venoms were then subjected to several fractionation steps to isolate the active compounds. For the initial venom screen, a panel of 50 arthropod venoms (Table 1) were topically applied to V. destructor mites. Venoms were dissolved in 90% acetonitrile (v/v), and a 10 μg venom aliquot was applied per mite (n = 5 mites per venom). The dorsal plate of V. destructor mites (average mass 0.38 mg) was fixed to adhesive tape (ScotchTM 666 3 M; 19 × 32.9 mm, double sided) on microscope slides (ground edges 90° frosted end, 76 × 26 mm). A Nanoject II (Automatic Injector with Glass Capillaries, Drummond Cat.No. 3-000-205 A) was used for topical application of venom and control (90% acetonitrile) solutions. To accelerate solvent evaporation, the total volume of 483 nL was applied in seven aliquots of 69 nL each to the ventral plate of the mites between the posterior pair of legs. Each drop was allowed to dry before applying the next one, with the entire application procedure taking up to 1 h. Mite mortality was determined at various time intervals up to 48 h after the treatment using an Olympus stereomicroscope (SZX10/SZX2 Series). Initially, each mite was examined for movements of the legs, and immobile mites were stimulated with the tip of a wooden toothpick. Detection of static electricity by the mites, a few millimetres before the actual contact with the toothpick, was usually sufficient to trigger movement in mites that were still alive. […] At the later stage of the project, the slides with mites were placed into a self-constructed automated video monitoring system (using a USB camera) that employs an algorithm in OpenCV to subtract images from subsequent frames enabling the detection of changes in pixel intensity due to movements, for example of the extremities. Leg movements were stimulated with an air current applied over the mites at the time of image acquisition to determine mite mortality. The percentage of mite mortality for each venom was calculated at 2, 6 and 24 h, and adjusted by correcting for the mortality of the corresponding control group receiving only 90% acetonitrile.
The same procedure initially used for identifying varroacidal venoms was used for testing the topical activity of sHt1a and sGg1a. The peptides were dissolved in 0.5% Silwet L-77 (v/v), a silicone-based surfactant that is commonly used as a spreading agent for foliar sprays. 0.48 μg of peptide was topically applied to each mite, with n = 5 mites per treatment group. The activity of the sHt1a was confirmed using three cohorts of n = 5 mites, whereas the activity of sGg1a was confirmed using four cohorts of n = 5 mites. As a negative control, an equal volume of 0.5% Silwet (v/v) was topically applied (four cohorts of n = 5 mites), and 3% oxalic acid, a known varroacide used in commercial products[10] was used as positive control (eight cohorts of n = 5 mites). Mite mortality was recorded at 2-hourly intervals between 0 and 48 h after the treatment. For statistical analysis, mite survival data were plotted in Prism 10.0 (GraphPad Software, CA, USA), then a two-way ANOVA followed by Dunnett’s multiple comparisons test was performed, comparing the peptide and oxalic acid treatment against the respective 0.5% Silwet (v/v) control group data.

[1] = cited from earlier work
From the text: (§1) A possible alternative solution for control of V. destructor is venom-derived acaricidal peptides. Venomous arachnids such as spiders and scorpions prey on arthropods, including other arachnids[17]–[19]. It is therefore unsurprising that the wide-spectrum insecticidal spider-venom peptide ω-hexatoxin-Hv1a (hereafter Hv1a) is also acaricidal. […] It therefore seems plausible that within the venoms of >53,000 extant spider[23] and >2,800 extant scorpion species, each comprising hundreds to thousands of p ...

mammals = details: cited from earlier work
From the text: as §1

honeybees = details: cited from earlier work
From the text: as §1

Compound	time to significant mortality (V. destructor mites; eight cohorts of n = 5 mites) [h]	survival of V. destructor (V. destructor mites; vs 0.5% Silwet group, two-way ANOVA, Dunnett)	acaricidal activity [1]	activity against mammals (mammals)	activity against honeybees (honeybees)
O=C(O)C(=O)O [oxalic acid, reference compound]	2	significantly reduced V. destructor survival			
ω-hexatoxin-Hv1a			acaricidal	inactive	inactive

Reference: publication PMC13233288, “Spider venom peptides Ht1a and Gg1a are toxic to honeybee parasite Varroa destructor by topical application” (npj Drug Discovery, 2026)
